Measured values taken from patent publication US7834008B2, “Cyclopropyl derivatives as NK3 receptor antagonists” (H. Lundbeck A/S, priority 2003, dated 2010).

Molecular target: T1, human NK3 receptor (Homo sapiens, UniProt P29371)
T1 construct: expressed in transfected cells
T1 sequence (P29371 1-465): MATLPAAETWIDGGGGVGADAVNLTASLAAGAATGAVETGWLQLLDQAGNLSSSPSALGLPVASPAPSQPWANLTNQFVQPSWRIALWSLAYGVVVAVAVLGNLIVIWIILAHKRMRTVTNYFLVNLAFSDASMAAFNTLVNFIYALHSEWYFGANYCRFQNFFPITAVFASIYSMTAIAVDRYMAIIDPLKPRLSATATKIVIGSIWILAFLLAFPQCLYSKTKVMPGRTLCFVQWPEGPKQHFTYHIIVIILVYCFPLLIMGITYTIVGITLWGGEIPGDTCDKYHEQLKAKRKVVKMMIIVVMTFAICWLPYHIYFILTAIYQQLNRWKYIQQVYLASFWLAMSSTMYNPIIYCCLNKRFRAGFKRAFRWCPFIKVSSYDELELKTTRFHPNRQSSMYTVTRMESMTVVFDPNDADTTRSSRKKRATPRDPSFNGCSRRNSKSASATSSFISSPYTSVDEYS
Assay: Fluorometric Imaging Plate Reader (FLIPR) calcium assay, antagonist test against NKB
Format: cell-based
Details: BHK cells stably expressing the human NK3 receptor, EC85 of NKB (app. 1 nM)
Description: The Fluorometric Imaging Plate Reader (FLIPR) assay: The compounds were analysed for efficacy profile in FLIPR assays similar to assays described in Jerman, J C et al: Eur J Pharmacol. 2001, 414, p 23-30. BHK cells (cf. Example 20) stably expressing the human NK3 receptor were seeded in 100 μl media in black walled clear-base 96-wells plates (Costar) aiming at a confluency of 95-100% at the day of assay. The assay was performed according to the calcium assay kit (Molecular Devices). Briefly, the calcium assay reagent was dissolved in Hanks BSS (HBSS) buffer, pH 7.4 containing 20 mM Hepes and 2.5 mM probinicid. An equal volume (100 μl) of the calcium assay reagent solution was added to the wells and the plates were incubated for 60 min at 37° C. The plates were subsequently placed in the FLIPR for examination of fluorescence.
Compounds were diluted in HBSS buffer containing 20 mM Hepes prior to test. For test of agonist activity 50 μl of compound was added to the wells and the plates were analysed for 3 minutes in the FLIPR. For test of antagonist activity, 25 μl of compound was added to the wells and the plate was analysed for a 5 minute period. Subsequently, the wells were added 25 μl of an EC85 (final concentration) of NKB (app. 1 nM) previously determined from a dose-response curve with NKB. The plates were subsequently read for 3 minutes before termination. As controls, selected wells on all plates were added only 100 nM of the NK3 receptor agonist NKB or 2 μM of the calcium ionophor ionomycin. The maximal increase in fluorescence over background following each ligand addition was determined and analysed.

| Compound | inhibition of the NKB-mediated activation of the NK3 receptor |
| --- | --- |
| CC(=O)NC1(c2ccccc2)CCN(C[C@@H]2C[C@@]2(C(=O)N(C)Cc2ccc(F)cc2)c2ccc(Cl)cc2)CC1 [Compound 44a, (1S,2R)-2-(4-Acetylamino-4-phenyl-piperidin-1-ylmethyl)-1-(4-chloro-phenyl)-cyclopropanecarboxylic acid (4-fluoro-benzyl)-methyl-amide] | inhibited the NKB-mediated activation of the NK3 receptor |
| CC(=O)NC1(c2ccccc2)CCN(C[C@@H]2C[C@@]2(C(=O)N(C)Cc2ccccc2Cl)c2ccc(Cl)cc2)CC1 [Compound 45a, (1S,2R)-2-(4-Acetylamino-4-phenyl-piperidin-1-ylmethyl)-1-(4-chloro-phenyl)-cyclopropanecarboxylic acid (2-chloro-benzyl)-methyl-amide] | inhibited the NKB-mediated activation of the NK3 receptor |
| CC(=O)N1CC2(CCN(C[C@@H]3C[C@@]3(C(=O)N(C)Cc3ccc(F)cc3)c3ccc(F)cc3)CC2)c2cc(F)ccc21 [Compound 32a] | inhibited the NKB-mediated activation of the NK3 receptor |
| CN(Cc1ccc(F)cc1)C(=O)[C@@]1(c2ccccc2)C[C@H]1CN1CCC(C(=O)N2CCCCC2)(c2ccccc2)CC1 [Compound 42a, (1S,2R)-1-Phenyl-2-[4-phenyl-4-(piperidine-1-carbonyl)-piperidin-1-ylmethyl]-cyclopropanecarboxylic acid (4-fluoro-benzyl)-methyl-amide] | inhibited the NKB-mediated activation of the NK3 receptor |
| (1S,2R)-1-(3,4-Difluoro-phenyl)-2-[4-phenyl-4-(piperidine-1-carbonyl)-piperidin-1-ylmethyl]-cyclopropanecarboxylic acid-methyl-amide [Compound 33a] | inhibited the NKB-mediated activation of the NK3 receptor |
| CC(=O)N1CC2(CCN(C[C@@H]3C[C@@]3(C(=O)N(C)Cc3ccc(F)cc3)c3ccccc3)CC2)c2ccccc21 [Compound 23a] | inhibited the NKB-mediated activation of the NK3 receptor |
| CC(=O)N1CC2(CCN(C[C@@H]3C[C@@]3(C(=O)N(C)Cc3ccc(F)cc3)c3ccccc3)CC2)c2cc(F)ccc21 [Compound 25a] | inhibited the NKB-mediated activation of the NK3 receptor |

Test system: not given
Assay: not given
Details: in particular positive symptoms; cited from earlier work

| Compound | effect against schizophrenia |
| --- | --- |
| CC(=O)N(C)C1(c2ccccc2)CCN(CCC[C@]2(c3ccc(Cl)c(Cl)c3)CCCN(C(=O)c3ccccc3)C2)CC1 [SR142801] | has effect against schizophrenia |
